Results as given in patent US7132418B2, “Peptidyl heterocyclic ketones useful as tryptase inhibitors” (Ortho-McNeil Pharmaceutical, Inc., priority 1999, dated 2006).

Key:
[1] = compared with placebo, 16 mild asthmatics, nebulized dry powder formulation; cited from earlier work
[2] = biological target: T1, Bovine type 1 trypsin (Bos taurus, UniProt P00760); assay: Trypsin IC50 method, chromogenic substrate hydrolysis; format: biochemical; conditions: 3.2 U/ml bovine type 1 trypsin, 1.0 mM Spectrozyme TRY
T1 construct: purchased Sigma
T1 sequence (P00760 24-246): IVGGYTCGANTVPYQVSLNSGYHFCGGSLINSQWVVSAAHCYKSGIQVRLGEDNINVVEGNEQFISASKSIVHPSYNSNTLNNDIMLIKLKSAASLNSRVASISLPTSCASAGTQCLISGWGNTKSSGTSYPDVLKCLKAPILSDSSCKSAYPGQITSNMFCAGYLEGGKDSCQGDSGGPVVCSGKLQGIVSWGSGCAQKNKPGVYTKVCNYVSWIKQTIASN
Procedure: (§1) The enzyme reaction is started by the addition of enzyme ([E]: 1.0 nM human Lung Tryptase; Cortex Biochem CP3033). Data is collected over a period of 30 min. and the initial rate of substrate hydrolysis (Vo (mOD/min)) is calculated. Inhibition is calculated by comparing to wells containing no inhibitor (vehicle) and IC50s are determined using a four parameter fit logistics model. • Trypsin IC50 Method: Inhibition of trypsin-catalyzed hydrolysis rates were measured using the same method as the tryptase procedure. Bovine type 1 trypsin (Sigma) and Spectrozyme® TRY (Cbo-Gly-D-Ala-Arg-pNA.AcOH, American Diagnostics) replaced their tryptase equivalents at concentrations of 3.2 U/ml trypsin and 1.0 mM Spectrozyme® TRY.

[3] = biological target: T2, human Lung Tryptase; assay: Tryptase IC50 method, chromogenic substrate hydrolysis; format: biochemical; conditions: 1.0 nM human lung tryptase, 500 μM N-p-Tosyl-GLY-PRO-LYS-pNA, 37° C.
T2 construct: 1.0 nM human Lung Tryptase
Procedure: as §1

[4] = test system: trypsin; conditions: pancreatic agents, comparison values; cited from earlier work

| SMILES | IC50 [2] [nM] | IC50 [3] [nM] | improvement for the late airway response [1] [%] | mean maximum decrease of forced expiratory volume in one second for late airway hyperresponsiveness [1] [%] | IC50 [4] [nM] |
| --- | --- | --- | --- | --- | --- |
| NC(=O)[C@@H]1CCCN1C(=O)[C@H](CCCN=C(N)N)NC(=O)c1ccc2ccccc2c1O [APC-366] | – | – | 33 | 21 | – |
| CC(=O)N[C@H]1CCC[C@H]1C(=O)NC(CCCNC(=N)N)C(=O)c1nc2ccccc2s1 (stereo partly drawn) [Compound 3, cis-2-Acetylamino-N-[(1S)-4-[(aminoiminomethyl)amino]-1-(2-benzothiazolylcarbonyl)butyl]-1-cyclopentanecarboxamide] | 360 ± 30 | 1700 ± 700 | – | – | – |
| CC(=O)N1C[C@H]2C[C@H]2C1C(=O)NC(CCCNC(=N)N)C(=O)c1nc2ccccc2s1 (stereo partly drawn) [Compound 8, (2S)-trans-3-Acetyl-N-[4-[(aminoiminomethyl)amino]-1-(2-benzothiazolylcarbonyl)butyl]-3-azabicyclo(3.1.0)hexane-2-carboxamide] | 190 | 110 ± 40 | – | – | – |
| CC(=O)NC1CCC(C(=O)NC(CCCNC(=N)N)C(=O)c2nc3ccccc3s2)CC1 (stereo not drawn) [Compound 17, 4-Acetamido-N-[4-[(aminoiminomethyl)amino]-1-(2-benzothiazolylcarbonyl)butyl]-cyclohexanecarboxamide] | 2400 | 9400 ± 5700 | – | – | – |
| CCCC(CCC)C(=O)N[C@@H](CC(=O)OC)C(=O)N1CCC[C@H]1C(=O)N[C@@H](CCCNC(=N)N)C(=O)c1nc2ccccc2s1 [Compound 26, N-(1-Oxo-2-propylpentyl)-L-α-aspartyl-N-[4-[(aminoiminomethyl)amino]-1-(2-benzothiazolylcarbonyl)butyl]-L-prolinamide, methyl ester] | 48 ± 1 | 110 ± 10 | – | – | – |
| N=C(N)NCCC[C@H](NC(=O)[C@@H]1CCCN1C(=O)[C@@H](CC1CCCCC1)NCC(=O)O)C(=O)c1nc2ccccc2s1 [Compound 27, N-(Carboxymethyl)-3-cyclohexyl-D-alanyl-N-[(1S)-4-[(aminoiminomethyl)amino]-1-(2-benzothiazolylcarbonyl)butyl]-L-prolinamide] | 36 ± 1 | 34 ± 3 | – | – | – |
| CN[C@H](Cc1ccccc1)C(=O)N1CCC[C@H]1C(=O)N[C@@H](Cc1cccc(C(=N)N)c1)C(=O)c1nc2ccccc2s1 [Compound 31, (S)—N-methyl-D-phenylalanyl-N-[1-[[3-(aminoiminomethyl)phenyl]methyl]-2-(2-benzothiazolyl)-2-oxoethyl]-L-prolinamide] | 240 | 290 ± 30 | – | – | – |
| CC(=O)N[C@H](C(=O)NC(CCCNC(=N)N)C(=O)c1nc2ccccc2s1)C(C)C (stereo partly drawn) [Compound 33] | 19 | 180 ± 10 | – | – | – |
| CN(C)C(=O)COC(=O)Cc1ccc(OC(=O)c2ccc(NC(=N)N)cc2)cc1 [camostat mesilate] | – | – | – | – | 10 |
| N=C(N)c1ccc2cc(OC(=O)c3ccc(N=C(N)N)cc3)ccc2c1 [nafamostat] | – | – | – | – | 13 |

Continued, in another order:

| IC50 [2] [nM] | IC50 [3] [nM] | SMILES | improvement for the late airway response [1] [%] | mean maximum decrease of forced expiratory volume in one second for late airway hyperresponsiveness [1] [%] | IC50 [4] [nM] |
| --- | --- | --- | --- | --- | --- |
| 210 | 100 ± 10 | CS(=O)(=O)N1C[C@H](O)C[C@H]1C(=O)NC(CCCNC(=N)N)C(=O)c1nc2ccccc2s1 (stereo partly drawn) [Compound 5, (2S,4R)-N-[4-[(aminoiminomethyl)amino]-1-(2-benzothiazolylcarbonyl)butyl]-4-hydroxy-1-methanesulfonyl-2-pyrrolidinecarboxamide] | – | – | – |
| 110 | 140 ± 80 | CS(=O)(=O)N1CCC[C@H]1C(=O)NC(CCCNC(=N)N)C(=O)c1nc2ccccc2s1 (stereo partly drawn) [Compound 6, (2S)-N-[4-[(aminoiminomethyl)amino]-1-(2-benzothiazolylcarbonyl)butyl]-1-methanesulfonyl-2-pyrrolidinecarboxamide] | – | – | – |
| 230 ± 110 | 1400 ± 800 | Cc1ccc(S(=O)(=O)N2CCC[C@H]2C(=O)NC(CCCNC(=N)N)C(=O)c2nc3ccccc3s2)cc1 (stereo partly drawn) [Compound 7, (2S)-N-[4-[(Aminoiminomethyl)amino]-1-(2-benzothiazolylcarbonyl)butyl]-1-[(4-methylphenyl)sulfonyl]-2-pyrrolidinecarboxamide] | – | – | – |
| 39 | 2400 ± 900 | COC(=O)N1CCC[C@H]1C(=O)NC(CCCNC(=N)N)C(=O)c1nc2ccccc2s1 (stereo partly drawn) [Compound 11, (2S)-N-[4-[(Aminoiminomethyl)amino]-1-(2-benzothiazolylcarbonyl)butyl]-1,2-pyrrolidinedicarboxamide, 1-methyl ester] | – | – | – |
| 160 | 180 ± 70 | N=C(N)NCCCC(NC(=O)C1CCCCC1C(N)=O)C(=O)c1nc2ccccc2s1 (stereo not drawn) [Compound 16, N-[4-[(Aminoiminomethyl)amino]-1-(2-benzothiazolylcarbonyl)butyl]-1,2-cyclohexanedicarboxamide] | – | – | – |
| 320 | 12000 ± 5000 | CC(=O)N[C@H]1CCCN(CC(=O)NC(CCCNC(=N)N)C(=O)c2nc3ccccc3s2)C1=O (stereo partly drawn) [Compound 19, (S)-3-Acetamido-N-[4-[(aminoiminomethyl)amino]-1-(2-benzothiazolylcarbonyl)butyl]-2oxo-1-piperidineacetamide] | – | – | – |
| 93 ± 68 | 260 ± 10 | N=C(N)NCCCC(NC(=O)CCC(N)=O)C(=O)c1nc2ccccc2s1 (stereo not drawn) [Compound 23, N-[4-[(Aminoiminomethyl)amino]-1-(2-benzothiazolylcarbonyl)butyl]butanediamide] | – | – | – |
| 42 ± 1 | 100 ± 40 | N=C(N)NCCC[C@H](NC(=O)CN1CCCC[C@H](NS(=O)(=O)Cc2ccccc2)C1=O)C(=O)c1nc2ccccc2s1 [Compound 28, (3S)N-[(1S)-4-[(Aminoiminomethyl)amino]-1-(2-benzothiazolylcarbonyl)butyl]hexahydro-2-oxo-3-[[(phenylmethyl)sulfonyl]amino]-1H-azepine-1-acetamide] | – | – | – |
| 58 ± 12 | 14 ± 5 | N=C(N)NCCC[C@H](NC(=O)[C@@H]1CCCN1C(=O)[C@H](CO)NS(=O)(=O)c1cccc2ccccc12)C(=O)c1nc2ccccc2s1 [Compound 29] | – | – | – |
| 110 ± 70 | 36 ± 4 | CN[C@H](Cc1ccccc1)C(=O)N1CCC[C@H]1C(=O)N[C@@H](CC1CCCN(C(=N)N)C1)C(=O)c1nc2ccccc2s1 (stereo partly drawn) [Compound 30, N-Methyl-D-phenylalanyl-N-[(2S)-[1-(aminoiminomethyl)-3-piperidinyl]-1-(2-benzothiazolylcarbonyl)ethyl]-L-prolinamide] | – | – | – |
| 17 | 440 | CC(=O)N[C@@H](CC1CCCCC1)C(=O)NC(CCCNC(=N)N)C(=O)c1nc2ccccc2s1 (stereo partly drawn) [Compound 32] | – | – | – |
| 46 | 340 | N=C(N)NCCCC(NC(=O)[C@@H]1CCCN1C(=O)c1ccccc1)C(=O)c1nc2ccccc2s1 (stereo partly drawn) [Compound 34] | – | – | – |
